Test system: influenza A Hp1N1 virus
Parameters: species or system mice
Conditions: mouse, in vivo

CC1(C)C(=O)N(c2ccc(C#N)c(C(F)(F)F)c2F)C(=S)N1c1ccc(CCCc2ncco2)nc1 [Proxalutamide]
14 d survival rate: 40% | Mean days of survival: 11.0 ± 2.83 days | Survival number (pcs.): 4 pcs. | Survival rate (%): 40%

CC1(C)C(=O)N(c2ccc(C#N)c(C(F)(F)F)c2)C(=S)N1c1ccc(OC[C@@H](O)CO)cc1 [SHR-3680]
14 d survival rate: 50% | Mean days of survival: 11.3 ± 2.87 days | Survival number (pcs.): 5 pcs. | Survival rate (%): 50%
